These results are taken from patent US20240003884A1, “METHODS AND COMPOSITIONS USING NON-INVASIVE PLASMA GLYCOMIC AND METABOLIC BIOMARKERS OF POST-TREATMENT CONTROL OF HIV” (priority 2020, published 2024).

Data set [1] concerns THP-1 derived macrophage-like cells. Put plainly: LPS/IFNγ-mediated cytokine secretion from THP-1 derived macrophage-like cells (MSD multiplex, ELISA). Format: cell-based. Particulars: 2 h before LPS/IFNγ for 5 h. How it is done:
(§1) (FIG. 2A) JLat 5A8 or 10.6 clones were stimulated with appropriate stimuli in the presence or absence of L-glutamic acid or vehicle control (cell culture suitable HCl solution). Geometric mean fluorescence intensity (MFI) of HIV-regulated GFP expression was measured by flow cytometry. Cell viability was determined by LIVE/DEAD aqua staining. (FIG. 2B) J-Lat 5A8 cells (n=3) and (FIG. 2C) J-Lat 10.6 cells (n=3), were treated with PMA/I (2 nM/500 nM), ImmunoCult Human CD3/CD28 T Cell Activator (25 μl per 10^6 cells), or TNFα (10 ng/ml) in the presence or absence of L-glutamic acid (5 mM) or appropriate control. Bar graphs display mean±SD values, and statistical comparisons were performed using two-tailed unpaired t-tests. (FIG. 2D) THP-1 cells were differentiated into macrophage-like cells using PMA. Cells were then treated with L-glutamic acid (5 mM), Pyruvic acid (2 mM), or appropriate controls for 2 hours prior to LPS/IFNγ stimulation for 5 hours. […] Bar graphs display mean±SD, and statistical comparisons were performed using two-tailed unpaired t-tests. […] Bar graphs display mean±SD, and statistical comparisons were performed using two-tailed unpaired t-tests.
In-vitro examination of the impact of L-glutamic acid and pyruvate on myeloid inflammation. THP1 cells were plated in 24-well plates at a density of 7×10^5 cells per well. To differentiate them into macrophages-like, 100 nM of PMA (Sigma catalog #P8139) was added and incubated for 72 hours. After incubation, media was aspirated, and each well was gently washed twice with R10 media. Cells were then rested for 24 hours on R10 media without PMA. After 24 hours, cells were washed again with serum-free RPMI 1640 media and kept on this media for the rest of experiment. Macrophage-like THP1 cells were pre-incubated with L-glutamic acid (5 mM) or Sodium Pyruvate solution (2 mM, Sigma catalog #S8636-100 ml) for 2 hours before stimulating with Escherichia coli serotype O127:B8 LPS (50 ng/ml; Sigma catalog #L3129-10MG) and IFNγ (10 ng/ml; R&D Systems catalog #285-IF-100, respectively). After 5 hours of incubation with LPS/IFNγ, culture supernatants were collected for cytokine quantitation. Supernatant levels of IL-10, IL-12p70, IL-13, IL-1β, IL-2, IL-4, IL-6, and IL-8 were determined using U-PLEX Proinflam Combo 1 (Meso Scale Diagnostic #K15049k-1) according to manufacture. Levels of TNF-α were quantified using DuoSet ELISA kits (R&D Systems catalog #DY210-05).
Beyond the direct impact on latent viral reactivation, plasma metabolites may exert effects on myeloid inflammation, and such effects may underlie HIV control during ATI. This possibility was tested by examining the effects of L-glutamic acid and pyruvate on lipopolysaccharides (LPS)-mediated secretion of pro-inflammatory cytokines from THP-1 derived macrophage-like cells. These cells are characterized by high basal glycolytic activity, which closely reflects the Warburg-like phenotype observed in HIV-infected individuals37. […] Cells were treated with L-glutamic acid, pyruvate, or appropriate controls for 2 h before stimulating with LPS and IFNγ for 5 h (FIG. 2D).

Data set [2] has as its system J-Lat 10.6 cells (latent HIV provirus). The following applies: J-Lat clone 10.6. As for the experimental part:
as §1

Data set [3] has as its system J-Lat 5A8 cells (latent HIV provirus). The following applies: J-Lat clone 5A8. As for the experimental part: as §1
Bar graphs display mean±SD values, and statistical comparisons were performed using two-tailed unpaired t-tests.

Setting [4] is: L-glutamic acid 5 mM with stimuli.
The mark [5] stands for this setting: L-glutamic acid 5 mM, 24 hours, vs stimuli alone.
The mark [6] stands for this setting: pyruvate 2 mM, listed as Pyruvate.

SMILES strings stand for the structures.

In the case of `N[C@@H](CCC(=O)O)C(=O)O` [L-glutamic acid], in data set [1] (L-glutamic acid 5 mM), the “LPS/IFNγ-mediated IL-6 secretion” value is reported as “significantly inhibited”, the “LPS/IFNγ-mediated TNFα secretion” value was “significantly inhibited” and the “LPS/IFNγ-mediated anti-inflammatory IL-10 production” value was “significantly increased”. In addition, in data set [2] (setting [4]), the “Cell viability (LIVE/DEAD aqua staining)” value was “without impacting viability”. For the same compound, the “PMA/ionomycin-induced reactivation of latent HIV (GFP MFI)” value in data set [2] (setting [5]) was “inhibited”. For the same compound, in data set [2] (TNFα 10 ng/ml, L-glutamic acid 5 mM, 24 hours), the “TNFα-induced reactivation of latent HIV (GFP MFI)” value is on record as “inhibited”. In data set [3] (setting [4]), the “Cell viability (LIVE/DEAD aqua staining)” value is “without impacting viability”. In data set [3] (setting [5]), the “PMA/ionomycin-induced reactivation of latent HIV (GFP MFI)” value was “significantly inhibited” and the “αCD3/αCD28-induced reactivation of latent HIV (GFP MFI)” value was “significantly inhibited”.

With `CC(=O)C(=O)O` [pyruvate, Pyruvic acid], in data set [1] (pyruvate 2 mM), the “LPS/IFNγ-mediated IL-6 secretion” value was “increased” and the “LPS/IFNγ-mediated TNFα secretion” value was “increased”. Also, in data set [1] (setting [6]), the “LPS/IFNγ-mediated IL-6 secretion” value is recorded as “significantly increased” and the “LPS/IFNγ-mediated TNFα secretion” value is given as “significantly increased”.
